Results taken from patent EP0911330B1, “1-(4-Arylpiperazine-1-y1)-3-(2-oxopyrrolidin/piperidin-1-y1) propanes as therapeutic agents for hypertension, ischemia, cardiovascular and other adrenergic receptors related disorders” (Council of Scientific & Industrial Research, priority 1997, dated 1999).

Key:
cat [1] = experiment: Drug antagonism studies of the antihypertensive effect in cat; type: in vivo; settings: 2 uMol dose i.v.
Normotensive cat = experiment: Effect on blood pressure, heart rate and adrenaline vasopressor response, anaesthetized normotensive cat; type: in vivo
Protocol: (§1) 2. Effect on blood pressure, heart rate and adrenaline vasopressor response of anaesthetized (pentobarbitone sodium 40 & 60 mg/kg i.p. in cat and rat respectively) normotensive & hypertensive rat & cat model preparations.
(§2) • (a) Cats (2.6-4.0 kg) of either sex anaesthetized with pentobarbitone sodium (40 mg/kg i.v.) and showing basal mean arterial blood pressure below 150 mm (Hg) were categorised as normotensive and above 150 mm Hg as hypertensive. Arterial blood pressure (BP) was recorded from one of the carotid artery through a stathum P23 DC pressure transducer and 7P1 low level DC preamplifier on a Grass Model P7 Polygraph, Signals from 7P1 preamplifier were used to trigger 7P4 Tachograph preamplifier for recording the heart rate (HR). Right femoral vein and Trachea were cannulated for intravenous injections and artificial ventilation respectively. Control responses to intravenous injection of noradrenaline (2-4 ug); acetyl choline (1-2 ug); histamine ([…]) and isoprenaline (1-2 ug) were taken before and after the administration of test doses of each compounds.

[2] = tested on: Langendorff perfused rat heart preparation; experiment: Cardioprotective activity, Langendorff perfused rat heart, prolonged ischemic insult, compound given at reperfusion
Protocol: Further, in Langendorff perfused rat heart preparation subjected to even upto 90 min. global ischemia, the compound at 0.001 ug/ml conc. given at the time of reperfusion revived normal rhythmic contraction started within 2 min. (Table 1) and incidence of reperfusion induced arrhythmia were abolished. Table 1: Compound administered at the time of reperfusion at the dose of 0.001 ug/ml on prolong period (90 min.) of ischemic insult.
(§3) The rats were killed by decapitation, heart were rapidly excised and placed in ice-cold HEPES tyrode buffer. Then isolated hearts were perfused retrogradely through coronary arteries using the Langendorff technique. The perfusion buffer consisted (in mM) NaCl 137, KCl 5.4, CaCl2 1.8, MgCl2 1.0, glucose 11.2 and HEPES 3.0. The buffer (pH 7.4) was continuously gassed with oxygen and maintained at 37°C. Coronary flow rate was maintained at 10 ml/min. The heart contracted spontaneously.
(§4) The perfused heart was allowed to equilibrate for 30 min. before initiation of any insult protocol. The text compounds were given at the time of reperfusion. Some of the compounds were dissolved in ethanol. Final concentration of ethanol in the perfusion buffer was 0.0001% and had no effect of its own on the parameter used. • (a) For brief period of ischemic insult (Hideo et al.). Pathophysiology and pathogenesis of stunned myocardium. J. Clin. Invest., 79, 950-961, 1987). Ischemia was initiated by stopping the flow for 16 min. followed by 30 min. reperfusion period. The durations were decided on the initial pilot experiments leading to 50% recovery of function. • (b) For prolong period of ischemic insult (Becker, L.C. & Ambrosio, G. Myocardial consequences of reperfusion. Prog. Cardiovas. Dis., 30, 23-44, 1987). Ischemia was initiated by stopping the flow for […]. followed by 30 min. reperfusion.

[3] = Site of action: ICV administration, blood pressure; type: in vivo; settings: dose 0.34-1.36 (column head: umol/kg i.d.)
[4] = tested on: Naturally occuring hypertensive cat; experiment: Effect on blood pressure, heart rate and adrenaline vasopressor response, anaesthetized naturally hypertensive cat; type: in vivo
Protocol: as §1, §2

cat [5] = experiment: Comparative antihypertensive effect with clinically used antihypertensive drugs in cat; type: in vivo; settings: 2 uMol/kg i.v.
Description: (4) Comparative antihypertensive effect with clinically used antihypertensive drugs at 2 uMol/kg i.v. dose in cat

[6] = tested on: histamine induced bronchoconstriction; experiment: Konzett and Rossler preparation, histamine induced bronchoconstriction; type: in vivo
[7] = tested on: Rat aortic ring preparation; experiment: Rat aortic ring preparation, NE induced contraction
[8] = tested on: Normotensive rat model preparation; experiment: Effect on blood pressure, heart rate and adrenaline vasopressor response, anaesthetized normotensive rat; type: in vivo
Protocol: as §1

[9] = tested on: Langendorff perfused rat heart; experiment: Antiischemic activity, Langendorff perfused rat heart, brief (16 min.) ischemic insult, compound given at reperfusion (Table 3); settings: 0.001 ug/ml at reperfusion
Protocol: Table 3: Compound administered at the time of reperfusion at a dose of 0.001 ug/ml on brief period (16 min.) of ischemic insult.
as §3, §4

Spinal transected cat = experiment: Site of action: spinal transected cat, blood pressure; type: in vivo; settings: dose 2-10 umol/kg i.d.
[10] = tested on: Hypertensive rat model preparation; experiment: Effect on blood pressure, heart rate and adrenaline vasopressor response, anaesthetized hypertensive rat model; type: in vivo
Protocol: 2. Effect on blood pressure, heart rate and adrenaline vasopressor response of anaesthetized (pentobarbitone sodium 40 & 60 mg/kg i.p. in cat and rat respectively) normotensive & hypertensive rat & cat model preparations. […]

Isolated aortic strip = experiment: Isolated aortic strip, endothelin induced contraction
[11] = tested on: Isolated Guinea pig ileum preparation; experiment: Isolated guinea pig ileum, antihistaminic activity; settings: 0.5-5.0 ug/ml
[12] = tested on: Langendorffs perfused rat heart preparation; experiment: Langendorff perfused rat heart, chronotropic effect
Rat hind limb perfusion = experiment: Site of action: rat hind limb perfusion, flow; type: in vivo
Acute toxicity (LD50) = settings: mouse, in vivo, Mice
cat [13] = experiment: Effect on blood pressure and adrenaline vasopressor response in anaesthetized cat, i.v. (Table 2); type: in vivo
Protocol: as §2

[14] = up to 90 min. global ischemia, 0.001 ug/ml given at the time of reperfusion
[15] = dose 20 uMol/kg i.d., in beats/min (unit assumed)

O=C1CCCN1CCCN1CCN(c2ccc(F)cc2)CC1 [C6H4-4-F, n=1, 1-[4-(4-fluorophenyl)piperazin-1-yl]-3-[2-oxopyrrolidin-1-yl]propane]
reduction of the fall in blood pressure (cat [1]; glibenclamide pretreatment): only partially reduced
alteration of antihypertensive effect (cat [1]; pretreatment with atropine sulphate, mepyramine maleate, propranolol, or yohimbine): failed to alter
reduction of antihypertensive effect (cat [1]; pretreatment with captopril or Dup-753): 33%
reduction of antihypertensive effect (cat [1]; pretreatment with prazosin): 90%
reduction of antihypertensive effect (cat [1]; pretreatment with verapamil): 50%
Adrenaline vasopressure response % inhibition (Normotensive cat; dose 10 uMol/kg i.d.): 26%
B.P. fall (Normotensive cat; dose 10 uMol/kg i.d.): 22%
Dur. (Normotensive cat; dose 10 uMol/kg i.d.): 85 min
Heart rate Pre treatment (Normotensive cat; dose 10 uMol/kg i.d.): 200 beats/min
Heart rate post treatment (Normotensive cat; dose 10 uMol/kg i.d.): 170 beats/min
Adrenaline vasopressure response % inhibition (Normotensive cat; dose 20 uMol/kg i.d.): 34.75%
B.P. fall (Normotensive cat; dose 20 uMol/kg i.d.): 21%
Dur. (Normotensive cat; dose 20 uMol/kg i.d.): >102.5 min
Heart rate Pre treatment (Normotensive cat; dose 20 uMol/kg i.d.): 185 beats/min
Heart rate post treatment (Normotensive cat; dose 20 uMol/kg i.d.): 165 beats/min
Onset ([2]; 0.001 ug/ml at reperfusion, 90 min. ischemic insult): 4 min
incidence of reperfusion induced arrhythmia [2, 14]: abolished
time until normal rhythmic contraction started [2, 14]: ≤ 2 min
B.P. fall [3]: 8-10%
Dur. [3]: 10 to 15 min
Adrenaline vasopressure response % inhibition ([4]; dose 10 uMol/kg i.d.): 49%
B.P. fall ([4]; dose 10 uMol/kg i.d.): 16%
Dur. ([4]; dose 10 uMol/kg i.d.): 110 min
Heart rate Pre treatment ([4]; dose 10 uMol/kg i.d.): 195/195
Heart rate post treatment ([4]; dose 10 uMol/kg i.d.): 195/195
B.P. fall ([4]; dose 20 uMol/kg i.d.): 22%
Dur. ([4]; dose 20 uMol/kg i.d.): >156.75 min
Heart rate Pre treatment [4, 15]: 177
Heart rate post treatment [4, 15]: 185
B.P. fall (cat [5]): 22%
Dur. (cat [5]): 25 min
antihistaminic activity against histamine induced bronchoconstriction [6]: some antihistaminic activity
NE induced contraction [7]: inhibited
B.P. fall ([8]; dose 2 uMol/kg i.v.): 25%
Dur. ([8]; dose 2 uMol/kg i.v.): 11 min
Heart rate Pre treatment ([8]; dose 2 uMol/kg i.v.): 350 beats/min
Heart rate post treatment ([8]; dose 2 uMol/kg i.v.): 370 beats/min
B.P. fall ([8]; dose 10 uMol/kg i.v.): 10%
Dur. ([8]; dose 10 uMol/kg i.v.): 3 min
Heart rate Pre treatment ([8]; dose 10 uMol/kg i.v.): 315 beats/min
Heart rate post treatment ([8]; dose 10 uMol/kg i.v.): 360 beats/min
B.P. fall ([8]; dose 20 uMol/kg i.v.): 21%
Dur. ([8]; dose 20 uMol/kg i.v.): 27.5 min
Heart rate Pre treatment ([8]; dose 20 uMol/kg i.v.): 315 beats/min
Heart rate post treatment ([8]; dose 20 uMol/kg i.v.): 285 beats/min
Onset [9]: 1.5 min
B.P. fall (Spinal transected cat): 14-18%
Dur. (Spinal transected cat): 15 to 30 min
Adrenaline vasopressure response % inhibition ([10]; dose 5 uMol/kg i.d.): 33%
B.P. fall ([10]; dose 5 uMol/kg i.d.): 27%
Dur. ([10]; dose 5 uMol/kg i.d.): 51 min
Heart rate Pre treatment ([10]; dose 5 uMol/kg i.d.): 346 beats/min
Heart rate post treatment ([10]; dose 5 uMol/kg i.d.): 320 beats/min
Adrenaline vasopressure response % inhibition ([10]; dose 10 uMol/kg i.d.): 23%
B.P. fall ([10]; dose 10 uMol/kg i.d.): 22%
Dur. ([10]; dose 10 uMol/kg i.d.): 76 min
Heart rate Pre treatment ([10]; dose 10 uMol/kg i.d.): 356 beats/min
Heart rate post treatment ([10]; dose 10 uMol/kg i.d.): 340 beats/min
Adrenaline vasopressure response % inhibition ([10]; dose 20 uMol/kg i.d.): 54%
B.P. fall ([10]; dose 20 uMol/kg i.d.): 29%
Dur. ([10]; dose 20 uMol/kg i.d.): 100 min
Heart rate Pre treatment ([10]; dose 20 uMol/kg i.d.): 310 beats/min
Heart rate post treatment ([10]; dose 20 uMol/kg i.d.): 275 beats/min
Endothelin induced contraction (Isolated aortic strip): inhibited significantly
Response to endothelin after washing the preparation (Isolated aortic strip; after washing): relaxation rather than contraction
antihistaminic activity [11]: significant antihistaminic activity
duration of negative chronotropic effect ([12]; 1 ug): 10 min
negative chronotropic effect ([12]; 1 ug): 30%
duration of negative chronotropic effect ([12]; 3 ug): 14 min
negative chronotropic effect ([12]; 3 ug): 26%
duration of negative chronotropic effect ([12]; 5 ug): 5 min
negative chronotropic effect ([12]; 5 ug): 5%
Percent change in flow (Rat hind limb perfusion; total dose 10 ug): no effect
Percent change in flow (Rat hind limb perfusion; total dose 25 ug): +35 (Vasodilatation) Percent
Percent change in flow (Rat hind limb perfusion; total dose 50 ug): +50 (Vasodilatation) Percent
LD50 (Acute toxicity (LD50); ip): 147 mg/kg
LD50 (Acute toxicity (LD50); po): 562 mg/kg
inhibition at 2 µmol/kg (cat [13]; Felis catus, iv, dose 2.0 umol/kg i.v., read-out: Adrenaline vasopressure response % inhibition): 9%
inhibition in vivo at 2 µmol/kg (cat [13]; Felis catus, iv, dose 2.0 umol/kg i.v., read-out: B.P. fall %): 25%
inhibition at 10 µmol/kg (cat [13]; Felis catus, iv, dose 10.0 umol/kg i.v., read-out: Adrenaline vasopressure response % inhibition): > 100%
inhibition in vivo at 10 µmol/kg (cat [13]; Felis catus, iv, dose 10.0 umol/kg i.v., read-out: B.P. fall %): 31%
Dur. (cat [13]; dose 2.0 umol/kg i.v.): 71 min
Dur. (cat [13]; dose 10.0 umol/kg i.v.): >112 min
